# Publication PMC4426677, “Tubulin structure-based drug design for the development of novel 4β-sulfur-substituted podophyllum tubulin inhibitors with anti-tumor activity” (Scientific Reports, 2015)
# Entries after “also recorded” stand apart in the source; their conditions may differ. Read-outs that look alike come from different tables or passages of the source.
# Experiments:
# [1] = MTT cytotoxicity assay, normal human cells HL-7720; assay type: cell-based; settings: drug exposure 48 h, mean ± SD (n = 3), read-out: Cytotoxic activity (IC50) HL-7720
# Description: (§1) Cytotoxicity assays were performed on the human gastric carcinoma cell line BGC-823, the human lung adenocarcinoma cell line A549, the human hepatocellular liver carcinoma HepG2, and the normal human hepatic immortal cell line HL-7702. Cells (3500–13,000) were seeded into 96-well microtest plates in 100 μL of culture medium per well (Falcon, CA). The cells were treated in triplicate with a gradient concentration of test compounds and incubated at 37 °C in RPMI-1640 with 100 mg L^−1 kanamycin and 10% (v/v) fetal bovine serum in a humidified atmosphere containing 5% CO2 for 48 h. The plating efficiencies of the untreated cells varied between experiments with values ranging from 14 to 31% for the HL-7702 cells. For all cell lines, microculture tetrazolium [3-(4, 5-dimethylthiazol-2-yl)−2, 5-diphenyltetrazolium bromide, MTT; Sigma, St. Louis, MO] assay was performed to measure cytotoxic effects. […] The initial seeding densities varied among the cell lines to ensure a final absorbance reading in control (untreated) cultures within the range of 0.6–0.8 A492 units. […] Each test was performed in triplicate, and the absorbance readings between the triplicates varied by no more than 5%.
# (§2) Data presented as means ± SD. Statistical analyses were performed by the analysis of variance (ANOVA). All statistical analyses were performed using Origin version 8.0 ([…], OriginLab Corp., Northampton, MA, USA). Sigmoidal dose responses and non-linear regression analyses were undertaken to identify half-maximal concentrations for each of the drugs. To evaluate differences in IC50 concentrations, analysis of variance combined with Tukey’s multiple range test was used.
# A549 cells [2] = assay: Immunofluorescence staining of tubulin and nuclei; assay type: cell-based, human; settings: 1 μM, 12 hours
# Description: (§3) The degree of tubulin polymerization was evaluated through pellet mass formation in centrifugation assays in the presence of stoichiometric and semi-stoichiometric concentrations of each lignan.
# Cells were fixed with 4% paraformaldehyde in phospate buffered saline (PBS), permeabilized with 0.5% Triton X-100 in PBS, and then tubulin was immunostained with monoclonal antibody to tubulin (B5-1-2, Sigma) followed by fluorescein 5-isothiocyanate (FITC) conjugated secondary antibody. Nuclei were labeled with 4′, 6-diamidino-2-phenylindole (DAPI). Fluorescence labeled tubulin and nuclei were observed using a Zeiss Axioplan fluorescence microscope, and images were captured by a XL16 Excel cooled digital camera controlled by the Dage Exponent software (Dage-MTI). Final images were prepared using Adobe Photoshop. The cells were then processed for immunofluoscence staining and confocal microscopy (× 600).
# [3] = test system: human gastric carcinoma cell line BGC-823; assay: MTT cytotoxicity assay, BGC-823; assay type: cell-based; settings: read-out: Cytotoxic activity (IC50) BGC-823
# Description: as §1, §2
# [4] = test system: human hepatocellular liver carcinoma HepG2; assay: MTT cytotoxicity assay, HepG2; assay type: cell-based; settings: read-out: Cytotoxic activity (IC50) HepG2
# Description: as §1, §2
# [5] = test system: human lung adenocarcinoma cell line A549; assay: MTT cytotoxicity assay, A549; assay type: cell-based; settings: read-out: Cytotoxic activity (IC50) A549
# Description: as §1, §2
# calf brain tubulin = assay: Tubulin assembly inhibition, centrifugation assay; assay type: biochemical; settings: 30 min at 37 °C, read-out: GI50, inhibition of tubulin polymerization
# Description: as §3
# Purification of calf brain tubulin and chemicals were followed as previously described by Andreu[20]. Ligands were dissolved in DMSO at 20 mM and kept at −80 °C. Work solutions were done in DMSO and kept at −20 °C. The 50% inhibitory ligand concentration of tubulin assembly was determined with a centrifugation assay. Tubulin was equilibrated prior to use in 3.4 M glycerol, 1 mM EGTA, 0.1 mM GTP, pH 7.0, buffer through a 25 cm × 0.9 cm Sephadex G-25 column. Aggregates were removed by a centrifugation at 90000 g × 10 min in a TLA 120 rotor at 4 °C in an Optima TLX centrifuge. Tubulin concentration was determined as described by Andreu[21]. Tubulin was kept at 4 °C, and 0.9 mM GTP and 6 mM MgCl2 were added to the sample. The solution was distributed in 200 μL polycarbonate tubes for the TL100 rotor. […] Microtubules were separated from unassembled tubulin by a centrifugation at 90000 g × 10 min in a TLA100 rotor at 37 °C in an Optima TLX centrifuge. […] The 50% inhibitory ligand concentration of tubulin assembly was determined with a centrifugation assay that measured the decrease in the concentrations of microtubules assembled in the presence of different concentrations of the compound.
# tubulin = assay: Surface plasmon resonance binding to immobilized tubulin; settings: 1:1 Langmuir model, HBS-T buffer pH 7.4; read-out: equilibrium dissociation constant (KD value), SPR
# Description: as §3
# Based on the surface plasmon resonance (SPR) technology, the binding affinity of compounds to tubulin was determined with the ProteOn^TM XPR36 Protein Interaction Array System (Bio-Rad, Hercules, CA). For this purpose, tubulin was dissolved in 10 mM sodium acetate buffer (pH 3.5) and immobilized to the ProteOn^TM GLH sensor chip with the ProteOn^TM amine coupling kit. The final immobilization level was 8000 RU (Response unit). […] Data were analyzed with the ProteOn^TM Manager software, fitted to the 1:1 Langmuir model.
# A549 cells [6] = assay: Cell cycle analysis (PI staining, flow cytometry); assay type: cell-based, human; settings: for G2/M phase arrest ratio: after 24 h incubation until end of incubation
# Description: Tubulin inhibitors block cell cycle progression in mitosis at the G2/M phase, and a prolonged mitotic arrest triggers various apoptotic pathways. […] After 24 h incubations, the G2/M phase arrest ratio remained at around 80% and 90% until the end of the incubation.
# Cell cycle arrest detection in A549 cells using propidium iodide (PI) double staining treatment with different concentrations of 4-TG-PTOX (i.e., 0.1, 1, and 5 μM) for 6, 12, 24, 48 h, respectively. The A549 cell line was used for cell cycle analysis. Cells were treated in triplicate with a gradient concentration of test compounds and incubated at 37 °C in RPMI-1640 with 100 mg L^−1 kanamycin and 10% (v/v) fetal bovine serum in a humidified atmosphere containing 5% CO2 for 48 h. Untreated and drug-treated cells were centrifuged and fixed overnight in 70% ethanol at 4 °C. They were then washed three times with PBS, incubated for 1 h with 1 mg/ mL RNase A and […] propidium iodide at room temperature, and analyzed with a FACSCalibur flow cytometer (BD, USA).
# A549 cells [7] = assay: Cell apoptosis analysis (annexin V/PI flow cytometry); assay type: cell-based, human; settings: for maximum level of apoptosis: 48 h
# Description: After 48 h of treatment with 4-TG-PTOX, the maximum levels of apoptosis reached were 63% and 67% at 4-TG-PTOX concentrations of 1 and 5 µM, respectively.
# Cell apoptosis-inducing detection in A549 cells treatment with different concentrations of 4-TG-PTOX (i.e., 0.1, 1, and 5 μM) for 6, 12, 24, 48 h, respectively. In the early stages of apoptosis, phosphatidylserine (PS) was translocated from the inside of the cell membrane to the outside. Annexin V, a calcium dependent phospholipid-binding protein associated with a high affinity for phosphatidylserine, was used to detect early apoptotic cells. Propidine Iodide (PI) was a red fluorescent dye and stained cells that had lost membrane integrity. So, cells stained with FITC-annexin V and PI were discriminated necrotic cells (Q1, Annexin-/PI +), late apoptotic cells (Q2, Annexin +/PI+), intact cells (Q3, Annexin -/PI -) and early apoptotic cells (Q4, Annexin+/PI -).
# [8] = BGC-823, MTT, drug exposure 48 h, mean ± SD (n = 3)
# [9] = HepG2, MTT, drug exposure 48 h, mean ± SD (n = 3)
# [10] = A549, MTT, drug exposure 48 h, mean ± SD (n = 3)
Structure (SMILES),IC50 at 48 h [1] [µM],effect on cellular microtubules (immunofluorescence) (A549 cells [2]),"IC50 [3, 8] [µM]","IC50 [4, 9] [µM]","IC50 [5, 10] [µM]",effect on nucleus (DAPI) (A549 cells [2]),GI50 (calf brain tubulin) [µM],Kd (tubulin) [µM],"G2/M phase arrest (A549 cells [6]; A549, 0.1 μM)","G2/M phase arrest ratio (A549 cells [6]; A549, 1 μM)","G2/M phase arrest ratio (A549 cells [6]; A549, 5 μM) [%]","ratio of apoptotic cells (A549 cells [7]; A549, 0.1 μM)","maximum level of apoptosis (A549 cells [7]; A549, 1 µM) [%]","maximum level of apoptosis (A549 cells [7]; A549, 5 µM) [%]","IC50 ([3]; BGC-823, 48 h) [µM]","IC50 ([4]; HepG2, 48 h) [µM]","IC50 ([5]; A549, 48 h) [µM]"
"COc1cc2c(c(OC)c1OC)-c1ccc(OC)c(=O)cc1[C@@H](NC(C)=O)CC2 [Colchicines, colchicine]",6.42 ± 1.03,inhibited tubulin polymerization,12.2 ± 1.26,13.2 ± 0.88,12.2 ± 0.76,,,,,,,,,,,,
COc1cc(C2c3cc4c(cc3C(Sc3ncnc5nc[nH]c35)C3COC(=O)C23)OCO4)cc(OC)c1OC (centres unmarked) [Compound 4-MP-PTOX],11.3 ± 0.57,anti-microtubule activity was observed; also recorded: inhibited tubulin polymerization,8.72 ± 3.15,1.14 ± 1.07,1.12 ± 0.35,not damaged,< 2,8.7,,,,,,,,,
COc1cc(C2c3cc4c(cc3C(Sc3nc(N)nc5nc[nH]c35)C3COC(=O)C23)OCO4)cc(OC)c1OC (centres unmarked) [Compound 4-TG-PTOX],13.5 ± 2.41,anti-microtubule activity was observed; also recorded: inhibited tubulin polymerization,4.4 ± 1.55,0.3 ± 0.34,0.57 ± 0.92,not damaged,< 1,6.2,arrested after 12 h and strongly arrested after 24 and 48 h,around 80%,~90,unaffected,63,67,,,
"COC(=O)Nc1nc2ccc(C(=O)c3cccs3)cc2[nH]1 [Nocodazole, nocodazole]",8.51 ± 1.73,,,,,,,,,,,,,,38.9 ± 3.12,18.4 ± 3.71,27.4 ± 2.92
"COc1cc([C@@H]2c3cc4c(cc3[C@H](O)[C@H]3COC(=O)[C@H]23)OCO4)cc(OC)c1OC [PTOX, podophyllotoxin]",4.31 ± 1.46,,18.3 ± 2.22,8.36 ± 1.42,20.2 ± 2.75,,,,,,,,,,,,
